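Dose response: 5 concentrations. Exposure: 48 h. Format: 96-well plates. Endpoint: linear interpolation; highest concentration if not reached. GI50: concentration for 50% inhibition of growth.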 The source made the active and inactive calls. Rule as the data show it: active = GI50 up to about 1.1 µM and inactive = higher.
Assays:
Experiment in all cases: NCI tumour cell line growth inhibition, 48 h
[1] = test system: 786-0
[2] = test system: A498
[3] = test system: A549
[4] = test system: EKVX
[5] = test system: HCC 2998
[6] = test system: HCT-116
[7] = test system: HL-60
[8] = test system: IGROV-1
[9] = test system: K562
[10] = test system: M14
[11] = test system: MDA-MB-231
[12] = test system: MDA-N
[13] = test system: MOLT-4
[14] = test system: NCI-H460
[15] = test system: OVCAR-3
[16] = test system: OVCAR-4
[17] = test system: RXF 393
[18] = test system: SN12C
[19] = test system: SNB-75
[20] = test system: U-251

Row | SMILES | GI50 [1] | GI50 [2] | GI50 [3] | GI50 [4] | GI50 [5] | GI50 [6] | GI50 [7] | GI50 [8] | GI50 [9] | GI50 [10] | GI50 [11] | GI50 [12] | GI50 [13] | GI50 [14] | GI50 [15] | GI50 [16] | GI50 [17] | GI50 [18] | GI50 [19] | GI50 [20]
1 | CCO/C=C1\SC(=S)N(c2ccc(OCC)cc2)C1=O | > 100 µM (inactive) | 80.4 µM (inactive) | > 100 µM (inactive) | > 100 µM (inactive) | 52.5 µM (inactive) | > 100 µM (inactive) | > 100 µM (inactive) | > 100 µM (inactive) | 44.6 µM (inactive) | 97.5 µM (inactive) | > 100 µM (inactive) | 45.2 µM (inactive) | 43.1 µM (inactive) | > 100 µM (inactive) | > 100 µM (inactive) | 57 µM (inactive) | 33.3 µM (inactive) | > 100 µM (inactive) | 18.9 µM (inactive) | 48 µM (inactive)
2 | CCN(CC)CCn1ncc2c3c(=O)c4cccnc4n(CCN(CC)CC)c3ccc21 | 5.97 µM (inactive) | > 10 µM (inactive) | > 10 µM (inactive) | > 10 µM (inactive) | > 10 µM (inactive) | 3.54 µM (inactive) | 8.2 µM (inactive) | > 10 µM (inactive) | > 10 µM (inactive) | > 10 µM (inactive) | > 10 µM (inactive) | > 10 µM (inactive) | 4.39 µM (inactive) | 6.18 µM (inactive) | 8.11 µM (inactive) | 4.44 µM (inactive) | > 10 µM (inactive) | 8.87 µM (inactive) | 9.66 µM (inactive) | > 10 µM (inactive)
3 | Cc1ccc2c(c1)C(=O)/C(=C1/CCc3ccc(C)cc31)C2 | 46 µM (inactive) | > 100 µM (inactive) | > 100 µM (inactive) | > 100 µM (inactive) | > 100 µM (inactive) | 59 µM (inactive) | > 100 µM (inactive) | > 100 µM (inactive) | 76 µM (inactive) | > 100 µM (inactive) | 27.8 µM (inactive) | > 100 µM (inactive) | > 100 µM (inactive) | > 100 µM (inactive) | > 100 µM (inactive) | 30.4 µM (inactive) | > 100 µM (inactive) | > 100 µM (inactive) | 13.9 µM (inactive) | > 100 µM (inactive)
4 | Nc1nc(Cl)c(N)c(NCC2(CO)CCC(CCc3ccccc3)C2)n1 (stereo not given) | 20.4 µM (inactive) | 14.6 µM (inactive) | 11.8 µM (inactive) | 3.15 µM (inactive) | 16.9 µM (inactive) | 12.2 µM (inactive) | 3.37 µM (inactive) | 22.8 µM (inactive) | 0.183 µM (active) | 13.1 µM (inactive) | 17 µM (inactive) | 15.2 µM (inactive) | 0.759 µM (active) | 12.6 µM (inactive) | 18.7 µM (inactive) | 17.3 µM (inactive) | 17.4 µM (inactive) | 22.8 µM (inactive) | 25.4 µM (inactive) | 14.4 µM (inactive)
5 | NNC(=O)c1nnn(N)c1S | 93.8 µM (inactive) | > 100 µM (inactive) | > 100 µM (inactive) | > 100 µM (inactive) | > 100 µM (inactive) | > 100 µM (inactive) | 1 µM (active) | > 100 µM (inactive) | 36.8 µM (inactive) | > 100 µM (inactive) | 45.4 µM (inactive) | > 100 µM (inactive) | > 100 µM (inactive) | > 100 µM (inactive) | > 100 µM (inactive) | > 100 µM (inactive) | > 100 µM (inactive) | > 100 µM (inactive) | > 100 µM (inactive) | > 100 µM (inactive)
6 | COc1cc(/C=C/c2ccccn2)cc(OC)c1OC | > 10 µM (inactive) | > 10 µM (inactive) | > 10 µM (inactive) | > 10 µM (inactive) | > 10 µM (inactive) | > 10 µM (inactive) | > 10 µM (inactive) | > 10 µM (inactive) | > 10 µM (inactive) | > 10 µM (inactive) | > 10 µM (inactive) | > 10 µM (inactive) | > 10 µM (inactive) | > 10 µM (inactive) | > 10 µM (inactive) | > 10 µM (inactive) | > 10 µM (inactive) | > 10 µM (inactive) | 7.78 µM (inactive) | > 10 µM (inactive)

From ChEMBL document CHEMBL1201862, “PubChem BioAssay data set” (2004)
